Laboratory results reported in article PMC4829233, “Identification of Novel Chemical Scaffolds Inhibiting Trypanothione Synthetase from Pathogenic Trypanosomatids” (PLoS Neglected Tropical Diseases, 2016).
“And” between values parts separate entries of the source, which are not always exact repeats. Equal entries are not always repeated. Where two headings read alike, the source gives them in different places.

Columns and labels:
Assay in all cases: biochemical
[1] = target: TcTryS (Trypanosoma cruzi trypanothione synthetase) (Trypanosoma cruzi, UniProt Q9GT49); type: biochemical; details: for remaining activity at 30 µM: read-out: TcTryS Activity ± 2σn-1 (%); for inhibition at 30 µM: read-out: % TcTryS inhibition ± 2σn-1
Sequence of TcTryS (Trypanosoma cruzi trypanothione synthetase) (Q9GT49 whole entry): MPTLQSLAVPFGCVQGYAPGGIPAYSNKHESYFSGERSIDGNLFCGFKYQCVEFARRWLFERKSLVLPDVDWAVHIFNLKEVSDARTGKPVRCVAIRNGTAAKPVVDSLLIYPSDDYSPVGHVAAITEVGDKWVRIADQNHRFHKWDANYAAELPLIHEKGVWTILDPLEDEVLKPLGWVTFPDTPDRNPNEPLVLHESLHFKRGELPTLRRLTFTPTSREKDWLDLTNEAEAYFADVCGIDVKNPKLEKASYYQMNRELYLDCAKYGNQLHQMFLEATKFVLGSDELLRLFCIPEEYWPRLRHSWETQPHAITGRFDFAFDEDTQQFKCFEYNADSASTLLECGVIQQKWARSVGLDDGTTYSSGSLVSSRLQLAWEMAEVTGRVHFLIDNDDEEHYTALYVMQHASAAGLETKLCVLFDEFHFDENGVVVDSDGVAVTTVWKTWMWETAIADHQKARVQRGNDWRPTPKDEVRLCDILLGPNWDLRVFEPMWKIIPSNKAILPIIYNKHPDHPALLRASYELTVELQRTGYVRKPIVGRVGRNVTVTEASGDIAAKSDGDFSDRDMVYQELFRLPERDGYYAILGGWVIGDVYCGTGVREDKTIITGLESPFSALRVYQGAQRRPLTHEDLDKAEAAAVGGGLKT

[2] = target: TbTryS (Trypanosoma brucei trypanothione synthetase) (Trypanosoma brucei brucei, UniProt Q8IEX1); details: for activity at 30 µM: read-out: TbTryS Activity ± 2σn-1 (%); for inhibition at 30 µM: read-out: % TbTryS inhibition ± 2σn-1
Sequence of TbTryS (Trypanosoma brucei trypanothione synthetase) (Q8IEX1 1-627): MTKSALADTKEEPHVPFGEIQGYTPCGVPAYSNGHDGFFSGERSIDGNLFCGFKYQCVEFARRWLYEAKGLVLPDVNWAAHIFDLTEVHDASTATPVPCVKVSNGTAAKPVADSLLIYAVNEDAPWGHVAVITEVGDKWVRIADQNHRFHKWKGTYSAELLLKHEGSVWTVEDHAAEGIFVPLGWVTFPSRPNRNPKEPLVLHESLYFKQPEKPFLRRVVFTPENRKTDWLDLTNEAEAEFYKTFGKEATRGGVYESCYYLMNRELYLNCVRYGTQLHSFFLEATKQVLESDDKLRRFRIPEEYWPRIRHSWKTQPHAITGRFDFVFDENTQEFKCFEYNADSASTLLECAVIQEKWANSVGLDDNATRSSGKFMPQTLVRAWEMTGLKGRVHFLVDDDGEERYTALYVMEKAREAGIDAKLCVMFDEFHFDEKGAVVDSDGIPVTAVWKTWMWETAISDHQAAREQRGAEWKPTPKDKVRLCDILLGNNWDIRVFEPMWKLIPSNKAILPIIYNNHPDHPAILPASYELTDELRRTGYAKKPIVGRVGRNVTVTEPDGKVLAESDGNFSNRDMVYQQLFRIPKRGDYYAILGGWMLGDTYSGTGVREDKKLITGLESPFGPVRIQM

[3] = target: LiTryS (Leishmania infantum trypanothione synthetase) (Leishmania infantum, UniProt A4I2Z3); type: biochemical; details: for activity at 30 µM: read-out: LiTryS Activity ± 2σn-1 (%); for inhibition at 30 µM: read-out: % LiTryS inhibition ± 2σn-1
Sequence of LiTryS (Leishmania infantum trypanothione synthetase) (A4I2Z3 1-652): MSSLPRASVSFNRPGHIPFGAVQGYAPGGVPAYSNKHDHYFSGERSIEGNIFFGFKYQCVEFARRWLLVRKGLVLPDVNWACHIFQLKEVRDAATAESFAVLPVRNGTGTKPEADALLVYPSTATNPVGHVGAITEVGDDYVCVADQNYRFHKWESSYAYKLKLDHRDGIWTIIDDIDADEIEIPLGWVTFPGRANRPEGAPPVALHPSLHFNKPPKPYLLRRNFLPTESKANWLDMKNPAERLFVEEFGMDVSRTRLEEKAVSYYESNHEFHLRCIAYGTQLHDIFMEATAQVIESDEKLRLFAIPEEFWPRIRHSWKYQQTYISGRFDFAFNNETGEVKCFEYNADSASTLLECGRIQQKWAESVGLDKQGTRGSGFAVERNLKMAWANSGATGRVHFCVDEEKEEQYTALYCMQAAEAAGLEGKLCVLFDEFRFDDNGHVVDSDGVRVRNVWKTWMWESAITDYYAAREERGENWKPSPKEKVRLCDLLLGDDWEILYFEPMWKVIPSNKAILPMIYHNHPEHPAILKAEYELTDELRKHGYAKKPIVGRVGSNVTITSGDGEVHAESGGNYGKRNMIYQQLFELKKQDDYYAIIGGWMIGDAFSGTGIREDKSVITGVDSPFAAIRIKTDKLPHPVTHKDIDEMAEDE

SMILES	TcTryS Activity ± 2σn-1 (%) [1]	activity at 30 µM [2]	activity at 30 µM [3]	TbTryS Activity ± 2σn-1 (%) [2]	LiTryS Activity ± 2σn-1 (%) [3]	also measured
COc1ccc(C2C(C(=O)c3ccc4c(c3)OCCO4)=C(O)C(=O)N2c2nc3ccc(C)cc3s2)cc1 (centres unmarked) [AD81]	109.7 ± 8.9; 4%	128%	83.9 ± 4.2%			remaining activity at 30 µM [1]: 110 ± 8.9%; TbTryS Activity ± 2σn-1 (%) ([2]; 30 µM): 128.2 ± 3.6 ; 8 (0.93) %
Clc1ccc(CNCCCCCCCCNCc2ccc(Cl)cc2)cc1 [EAP1-43]	87.9 ± 4.7; 4%			69.7 ± 3.0; 4%	78.0 ± 5.9; 4%	
CCNC(=S)Nc1nc2nc(N)ncc2cc1-c1ccc2c(c1)OCO2 [ZEA41]		79.1%	86.4%			inhibition at 30 µM [1]: 50%; inhibition at 30 µM [2]: 20.9 ± 4.4%; inhibition at 30 µM [3]: 13.6 ± 3.4%
COc1cc(CNCCCNCc2ccc(O)c(OC)c2)ccc1O [APC1-82]	92.9 ± 5.6; 4%			88.1 ± 4.4; 3%	84.9 ± 0.9; 4%	
COc1cc(C2C(C(=O)c3ccc4c(c3)OCCO4)=C(O)C(=O)N2c2nc3ccc(Cl)cc3s2)ccc1O (centres unmarked) [ADMRC158]	97.4 ± 6.1; 4%	119%	85.3 ± 8.7%			remaining activity at 30 µM [1]: 97.4 ± 6.1%; TbTryS Activity ± 2σn-1 (%) ([2]; 30 µM): 119.1 ± 4.6; 5 (0.88) %
[O-][n+]1onc2cc(Br)ccc21 [Compound J33]	98.1 ± 4.0; 3%			96.5 ± 6.3; 3%	76.0 ± 6.8; 3%	
Fc1ccc(CNCCCCCCCCCCCCNCc2ccc(F)cc2)cc1 [EAP1-69]	56.3 ± 3.6; 3%			81.4 ± 5.6; 4 (1.39) %	63.2 ± 5.0; 4%	% TcTryS inhibition ± 2σn-1 [1]: ~ 50%
CC(C)(C)NC(=O)Nc1ncc2cc(-c3ccc4c(c3)OCO4)c(NC(=O)NC(C)(C)C)nc2n1 [ZEA40]		74.7%	84.7%			inhibition at 30 µM [1]: 50%; inhibition at 30 µM [2]: 25.3 ± 5.2%; inhibition at 30 µM [3]: 15.3 ± 8.3%
COc1cc(CNCCCCCCCCCCNCc2ccc(O)c(OC)c2)ccc1O [APC1-123]	88.8 ± 6.5; 4%			86.0 ± 5.5; 3%	94.3 ± 8.2; 3%	
O=[N+]([O-])c1ccc2c(c1)no[n+]2[O-] [Compound J16]	76.5 ± 1.0; 3%			92.6 ± 4.9; 3%	80.1 ± 9.2; 4%	
COc1ccc(CNCCCNCc2ccc(OC)cc2)cc1 [APC1-67]		71.9%	102%			remaining activity at 30 µM [1]: 92.4%
c1ccc(COc2ccc(CNCCCCCCCCCCNCc3ccc(OCc4ccccc4)cc3)cc2)cc1 [APC1-117]	90.8 ± 12.3; 2%			71.4 ± 6.1; 4%	69.8 ± 6.5; 3%	
[O-][n+]1onc2ccccc21 [J09/J34]	102.2 ± 3.3; 3%			90.9 ± 5.9; 4%	84.9 ± 5.5; 4%	
Cc1cc2no[n+]([O-])c2cc1C [Compound J11]	86.4 ± 2.9; 4%			88.8 ± 5.8; 4%	103.6 ± 10.4; 3%	
CCCCN(CCCC)C(=O)c1cnc(N)o1 [ZVR103]	100.0 ± 5.0; 2%			82.4 ± 4.7; 3%	99.4 ± 5.6; 4%	
Cn1c(=O)c2c(nc(N/N=C\c3ccc(O)cc3O)n2CC(O)COc2ccccc2)n(C)c1=O (centres unmarked) [TC227, (Z)-8-(2-(2,4-dihydroxybenzylidene)hydrazinyl)-7-(2-hydroxy-3-phenoxypropyl)-1,3-dimethyl-1H-purine-2,6(3H,7H)-dione]	161.6 ± 5.3; 3 (0.98) %	102 ± 2.3%	88.5 ± 7.1%			% TryS activity (TcTryS) [1]: 1.1 ± 3.1; 4% and 0.2 ± 3.1; 4% and 1.1 ± 2.1; 4%; remaining activity at 30 µM [1]: 162%
Fc1ccc(CNCCCCCCCCNCc2ccc(F)cc2)cc1 [EAP1-39]	96.0 ± 4.0; 4%			85.7 ± 2.0; 3%	69.6 ± 5.5; 4%	
